# Experimental data: ChEMBL document CHEMBL1141172, “Fragment-based lead discovery using X-ray crystallography” (J Med Chem, 2005)
# Biological target: T1, Tyrosine-protein phosphatase non-receptor type 1 (Homo sapiens) (UniProt P18031)
# T1 sequence (whole entry): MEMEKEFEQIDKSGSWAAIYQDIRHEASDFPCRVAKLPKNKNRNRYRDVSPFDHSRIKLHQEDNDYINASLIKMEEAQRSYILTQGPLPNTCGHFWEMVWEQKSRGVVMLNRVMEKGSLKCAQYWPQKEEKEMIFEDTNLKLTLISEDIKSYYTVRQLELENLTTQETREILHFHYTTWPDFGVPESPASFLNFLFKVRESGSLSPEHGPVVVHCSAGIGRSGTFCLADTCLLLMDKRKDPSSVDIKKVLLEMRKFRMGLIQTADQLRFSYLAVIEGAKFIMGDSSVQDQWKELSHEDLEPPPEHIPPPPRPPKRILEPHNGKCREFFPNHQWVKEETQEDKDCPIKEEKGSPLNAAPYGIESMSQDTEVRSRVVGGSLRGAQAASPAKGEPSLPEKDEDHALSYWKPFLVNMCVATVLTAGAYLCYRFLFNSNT
# Experiment: Binding affinity for protein tyrosine phosphatase 1B
smiles,measurement,value
NCc1ccc(NC(=O)C(=O)O)cc1,Affinity,86 µM
